Experimental findings from patent US20100093018A1, “CELLS […] PROTEINS AND ASSAYS USING SUCH CELLS” (ACHILLION PHARMACEUTICALS, INC., priority 2007, published 2010) are described below.

One data set relates to VX-950^R (A156T). Briefly: Susceptibility of VX-950 resistant replicon cell line. Format: cell-based, hepatitis C virus. Particulars: VX-950^R (A156T) versus Huh-9-13. On the technique in general: A replicon is a self-replicating genome or part of one, used to study replication in cells.
A further data set concerns NM107^R (S282T). In words: Susceptibility of NM107 resistant replicon cell line. Format: cell-based, hepatitis C virus. The conditions noted are these: NM107^R (S282T) versus Huh-9-13.
The next data set deals with BILN 2061^R (D168V). In words: Susceptibility of BILN 2061 resistant replicon cell line. It is filed as cell-based, hepatitis C virus. Particulars: BILN 2061^R (D168V) versus Huh-9-13.
The subject of a further data set is NI-1^R (S282T). Briefly: Susceptibility of NI-1 resistant replicon cell line. Format: cell-based, hepatitis C virus. The conditions noted are these: NI-1^R (S282T) versus Huh-9-13.
In data set [1] the test system is parental replicon cellular line, Huh-9-13. In words: Susceptibility of parental replicon cellular line. Format: cell-based, hepatitis C virus. Particulars: for EC50: Hepatitis C virus, read-out: EC50 ± SD; for Fold change in EC50: Parental cell line (Table 4).
The test system of a further data set is NNI-1^R (M414T). Briefly: Susceptibility of NNI-1 resistant replicon cell line. It is filed as cell-based, hepatitis C virus. The conditions noted are these: NNI-1^R (M414T) versus Huh-9-13.
Data set [2] deals with the molecule itself. In words: anti-NS4A immunoprecipitation and immunoblot of replicon cells or NS4A-transfected cells; dimer promoted by the compound ACH-806. For orientation: In western blotting, separated proteins are transferred to a membrane and probed.
Data set [3] concerns the molecule itself. Briefly: Western blot of transfected cell lysate, treated with ACH-806.

In general, EC50 refers to the concentration giving half of the maximal effect. For `COc1ccc2c(O[C@@H]3C[C@H]4C(=O)N[C@]5(C(=O)O)C[C@H]5/C=C\CCCCC[C@H](NC(=O)OC5CCCC5)C(=O)N4C3)cc(-c3csc(NC(C)C)n3)nc2c1` [BILN 2061], the “Fold change in EC50” value is given as over 100 in the data set with VX-950^R (A156T); 1.1 in the data set with NM107^R (S282T); over 100 in the data set with BILN 2061^R (D168V); 1.4 in the data set with NI-1^R (S282T); 1.0 in data set [1]; 2.8 in the data set on NNI-1^R (M414T). In data set [1], the EC50 came to 1.2 nM.
With `C[C@@]1(O)[C@H](O)[C@@H](CO)O[C@H]1n1ccc(N)nc1=O` [NM107], the results for the “Fold change in EC50” value (in the data set with NM107^R (S282T); in the data set with NI-1^R (S282T); in data set [1]) were 30.7, over 68.7 and 1.0, respectively.
With `CCC[C@H](NC(=O)[C@@H]1[C@H]2CCC[C@H]2CN1C(=O)[C@@H](NC(=O)[C@@H](NC(=O)c1cnccn1)C1CCCCC1)C(C)(C)C)C(=O)C(=O)NC1CC1` [VX-950], the “Fold change in EC50” value in the data set on NM107^R (S282T) is listed as 0.3; in the data set on BILN 2061^R (D168V), 2.9; in data set [1], 1.0; in the data set on NNI-1^R (M414T) it was 2.3. Also, the EC50 in data set [1] came to 610 nM.

B1: HCV NS4A protein (other)
chain: STWVLVGGVLAALAAYCLTTGSVVIVGRIILSGKPAIIPDREVLYREFDEMEEC
notes: also called hepatitis C virus NS4A; monomer of p14
B1: the binding result in data set [2] is recorded as “binds”.

B2: NS4A-cFLAG (HCV NS4A (1b) with C-terminal FLAG antibody tag) (other)
chain: STWVLVGGVLAALAAYCLTTGSVVIVGRIILSGKPAIIPDREVLYREFDEMEECDYKDDDDK
notes: also called NS4A-FLAG; product of pCl-neo-NS4A-cFlag
On to B2, for which the binding result in data set [3] is “binds”.
